What was measured:
[1] = target: Tyrosine-protein kinase ZAP-70 (Homo sapiens) (UniProt P43403); experiment: Inhibition of human ZAP70 assessed as residual activity at 1 uM using poly[Glu:Tyr] (4:1) as substrate by [gamma-33P]-ATP assay relative to control
[2] = target: Proto-oncogene tyrosine-protein kinase ROS (Homo sapiens) (UniProt P08922); experiment: Inhibition of human ROS assessed as residual activity at 1 uM using KKKSPGEYVNIEFG as substrate by [gamma-33P]-ATP assay relative to control
[3] = target: cAMP-dependent protein kinase catalytic subunit PRKX (Homo sapiens) (UniProt P51817); experiment: Inhibition of human PRKX assessed as residual activity at 1 uM using LRRASLG as substrate by [gamma-33P]-ATP assay relative to control
[4] = target: Rhodopsin kinase GRK1 (Homo sapiens) (UniProt Q15835); experiment: Inhibition of human GRK1 assessed as residual activity at 1 uM using casein as substrate by [gamma-33P]-ATP assay relative to control
[5] = target: Angiopoietin-1 receptor (Homo sapiens) (UniProt Q02763); experiment: Inhibition of human TIE2 assessed as residual activity at 1 uM using poly[Glu:Tyr] (4:1) as substrate by [gamma-33P]-ATP assay relative to control
[6] = target: T1, Serine/threonine-protein kinase Chk1 (Homo sapiens) (UniProt O14757); experiment: Inhibition of CHK1 phosphorylation at S345 residue in human FOLFOX-resistant HCT116 cells after 24 hrs by Western blot analysis
T1 sequence (whole entry): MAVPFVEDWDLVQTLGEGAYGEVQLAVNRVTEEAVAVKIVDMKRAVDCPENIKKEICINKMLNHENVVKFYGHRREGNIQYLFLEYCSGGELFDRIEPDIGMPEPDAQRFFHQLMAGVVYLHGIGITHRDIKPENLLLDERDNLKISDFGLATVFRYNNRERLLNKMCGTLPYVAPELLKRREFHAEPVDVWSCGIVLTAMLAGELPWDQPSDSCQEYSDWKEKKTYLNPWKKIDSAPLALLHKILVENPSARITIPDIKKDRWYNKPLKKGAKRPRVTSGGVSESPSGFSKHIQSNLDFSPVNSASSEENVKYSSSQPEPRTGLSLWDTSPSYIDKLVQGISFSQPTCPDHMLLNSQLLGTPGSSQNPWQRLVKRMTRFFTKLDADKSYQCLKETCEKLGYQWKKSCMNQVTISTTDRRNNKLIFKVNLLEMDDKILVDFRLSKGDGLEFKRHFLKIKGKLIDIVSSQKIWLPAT

[7] = target: Activin receptor type-1 (Homo sapiens) (UniProt Q04771); experiment: Inhibition of human ALK2 assessed as residual activity at 1 uM using casein as substrate by [gamma-33P]-ATP assay relative to control
[8] = target: Protein kinase C alpha type (Homo sapiens) (UniProt P17252); experiment: Inhibition of human PKCalpha assessed as residual activity at 1 uM using ERMRPRKRQGSVRRRV as substrate by [gamma-33P]-ATP assay relative to control
[9] = target: Hepatocyte growth factor receptor (Homo sapiens) (UniProt P08581); experiment: Inhibition of human c-MET assessed as residual activity at 1 uM using KKKSPGEYVNIEFG as substrate by [gamma-33P]-ATP assay relative to control
[10] = target: Serine/threonine-protein kinase 33 (Homo sapiens) (UniProt Q9BYT3); experiment: Inhibition of human STK33 assessed as residual activity at 1 uM using MBP as substrate by [gamma-33P]-ATP assay relative to control
[11] = target: Serine/threonine-protein kinase DCLK2 (Homo sapiens) (UniProt Q8N568); experiment: Inhibition of human DCAMKL2 assessed as residual activity at 1 uM using KKLNRTLSFAEPG as substrate by [gamma-33P]-ATP assay relative to control
[12] = target: Serine/threonine-protein kinase WNK3 (Homo sapiens, UniProt Q9BYP7); experiment: Inhibition of human WNK3 assessed as residual activity at 1 uM using MBP as substrate by [gamma-33P]-ATP assay relative to control
[13] = target: Aurora kinase C (Homo sapiens) (UniProt Q9UQB9); experiment: Inhibition of human Aurora C assessed as residual activity at 1 uM using [H-LRRASLG] as substrate by [gamma-33P]-ATP assay relative to control
[14] = target: Mitogen-activated protein kinase kinase kinase 19 (Homo sapiens) (UniProt Q56UN5); experiment: Inhibition of human YSK4 assessed as residual activity at 1 uM using MBP as substrate by [gamma-33P]-ATP assay relative to control
[15] = target: Myosin light chain kinase 2, skeletal/cardiac muscle (Homo sapiens) (UniProt Q9H1R3); experiment: Inhibition of human MLCK2 assessed as residual activity at 1 uM using KKLNRTLSFAEPG as substrate by [gamma-33P]-ATP assay relative to control
[16] = target: T1, Serine/threonine-protein kinase Chk1 (Homo sapiens); experiment: Inhibition of CHK1 phosphorylation at S296 residue in human FOLFOX-resistant HCT116 cells after 24 hrs by Western blot analysis
[17] = target: MAP kinase-interacting serine/threonine-protein kinase 2 (Homo sapiens) (UniProt Q9HBH9); experiment: Inhibition of human MNK2 assessed as residual activity at 1 uM using MBP as substrate by [gamma-33P]-ATP assay relative to control
[18] = target: Casein kinase II subunit alpha (Homo sapiens, UniProt P68400); experiment: Inhibition of human CK2A assessed as residual activity at 1 uM using RRRDDDSDDD as substrate by [gamma-33P]-ATP assay relative to control
[19] = target: Platelet-derived growth factor receptor beta (Homo sapiens) (UniProt P09619); experiment: Inhibition of human PDGFRbeta assessed as residual activity at 1 uM using poly[Glu:Tyr] (4:1) as substrate by [gamma-33P]-ATP assay relative to control
[20] = target: CDK2/Cyclin O (Homo sapiens) (UniProt P24941+P22674); experiment: Inhibition of human CDK2/cyclin-O assessed as residual activity at 1 uM using histone H1 as substrate by [gamma-33P]-ATP assay relative to control; type: protein-complex assay
[21] = target: Serine/threonine-protein kinase TAO3 (Homo sapiens) (UniProt Q9H2K8); experiment: Inhibition of human TAOK3 assessed as residual activity at 1 uM using MBP as substrate by [gamma-33P]-ATP assay relative to control
[22] = target: Casein kinase I isoform alpha (Homo sapiens) (UniProt P48729); experiment: Inhibition of human CK1a1 assessed as residual activity at 1 uM using KRRRAL[pS]VASLPGL as substrate by [gamma-33P]-ATP assay relative to control
[23] = target: CDK9/Cyclin-T2 (Homo sapiens) (UniProt P50750+O60583); experiment: Inhibition of human CDK9/cyclin-T2 assessed as residual activity at 1 uM using KTFCGTPEYLAPEVRREPRILSEEEQEMFRDFDYIADWC as substrate by [gamma-33P]-ATP assay relative to control; type: protein-complex assay
[24] = target: Insulin receptor (Homo sapiens) (UniProt P06213); experiment: Inhibition of human IR assessed as residual activity at 1 uM using poly[Glu:Tyr] (4:1) as substrate by [gamma-33P]-ATP assay relative to control

Sequence of Rhodopsin kinase GRK1 (Homo sapiens) (Q15835 whole entry): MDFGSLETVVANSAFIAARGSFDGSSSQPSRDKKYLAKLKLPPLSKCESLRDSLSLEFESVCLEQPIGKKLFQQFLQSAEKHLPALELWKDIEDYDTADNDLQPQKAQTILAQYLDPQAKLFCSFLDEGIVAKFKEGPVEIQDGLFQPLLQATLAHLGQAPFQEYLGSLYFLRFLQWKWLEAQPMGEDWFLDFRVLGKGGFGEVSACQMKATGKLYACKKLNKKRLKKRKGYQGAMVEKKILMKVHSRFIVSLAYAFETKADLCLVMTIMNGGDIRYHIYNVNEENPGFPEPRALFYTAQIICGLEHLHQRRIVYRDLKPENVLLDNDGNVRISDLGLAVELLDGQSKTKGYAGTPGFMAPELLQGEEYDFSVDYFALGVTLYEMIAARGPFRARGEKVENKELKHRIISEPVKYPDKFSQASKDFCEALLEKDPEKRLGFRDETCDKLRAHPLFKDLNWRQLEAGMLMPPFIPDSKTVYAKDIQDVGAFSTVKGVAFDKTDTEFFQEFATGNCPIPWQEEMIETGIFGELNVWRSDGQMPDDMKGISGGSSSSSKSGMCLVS
Sequence of Mitogen-activated protein kinase kinase kinase 19 (Homo sapiens) (Q56UN5 whole entry): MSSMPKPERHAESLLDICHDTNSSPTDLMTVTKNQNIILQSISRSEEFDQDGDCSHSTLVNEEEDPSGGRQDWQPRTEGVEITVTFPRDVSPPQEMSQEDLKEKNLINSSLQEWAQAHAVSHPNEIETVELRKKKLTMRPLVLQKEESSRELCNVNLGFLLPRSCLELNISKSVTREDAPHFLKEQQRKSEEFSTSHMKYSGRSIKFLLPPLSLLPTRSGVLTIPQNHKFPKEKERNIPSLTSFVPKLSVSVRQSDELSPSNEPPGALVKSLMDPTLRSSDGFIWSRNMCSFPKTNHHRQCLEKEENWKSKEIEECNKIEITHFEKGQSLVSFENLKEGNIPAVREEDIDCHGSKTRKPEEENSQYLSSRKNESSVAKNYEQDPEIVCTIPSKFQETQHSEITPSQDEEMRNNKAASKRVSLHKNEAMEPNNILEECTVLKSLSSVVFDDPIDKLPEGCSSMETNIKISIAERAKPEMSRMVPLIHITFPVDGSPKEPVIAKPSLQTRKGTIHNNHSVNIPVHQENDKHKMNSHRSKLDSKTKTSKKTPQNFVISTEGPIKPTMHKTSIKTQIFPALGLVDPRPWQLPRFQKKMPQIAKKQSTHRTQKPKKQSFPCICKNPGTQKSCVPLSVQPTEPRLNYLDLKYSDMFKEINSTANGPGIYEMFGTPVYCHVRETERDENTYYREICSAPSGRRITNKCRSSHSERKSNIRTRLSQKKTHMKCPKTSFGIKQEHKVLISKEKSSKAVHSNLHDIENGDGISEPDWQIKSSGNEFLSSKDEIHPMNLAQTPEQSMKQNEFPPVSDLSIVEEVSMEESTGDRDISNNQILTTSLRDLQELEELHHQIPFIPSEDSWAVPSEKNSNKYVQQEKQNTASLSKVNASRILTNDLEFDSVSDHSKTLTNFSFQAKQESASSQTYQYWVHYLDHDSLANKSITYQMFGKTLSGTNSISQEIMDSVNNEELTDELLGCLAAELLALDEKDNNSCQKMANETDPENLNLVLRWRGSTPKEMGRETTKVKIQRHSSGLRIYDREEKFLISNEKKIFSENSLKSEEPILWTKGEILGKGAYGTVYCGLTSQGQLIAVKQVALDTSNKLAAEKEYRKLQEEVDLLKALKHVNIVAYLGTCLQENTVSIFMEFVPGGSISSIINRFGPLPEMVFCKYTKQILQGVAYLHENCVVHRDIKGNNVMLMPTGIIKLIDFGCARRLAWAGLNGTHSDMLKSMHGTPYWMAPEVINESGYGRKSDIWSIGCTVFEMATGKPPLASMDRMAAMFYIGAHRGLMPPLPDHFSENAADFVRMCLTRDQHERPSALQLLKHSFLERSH
Sequence of Serine/threonine-protein kinase 33 (Homo sapiens) (Q9BYT3 whole entry, looked up): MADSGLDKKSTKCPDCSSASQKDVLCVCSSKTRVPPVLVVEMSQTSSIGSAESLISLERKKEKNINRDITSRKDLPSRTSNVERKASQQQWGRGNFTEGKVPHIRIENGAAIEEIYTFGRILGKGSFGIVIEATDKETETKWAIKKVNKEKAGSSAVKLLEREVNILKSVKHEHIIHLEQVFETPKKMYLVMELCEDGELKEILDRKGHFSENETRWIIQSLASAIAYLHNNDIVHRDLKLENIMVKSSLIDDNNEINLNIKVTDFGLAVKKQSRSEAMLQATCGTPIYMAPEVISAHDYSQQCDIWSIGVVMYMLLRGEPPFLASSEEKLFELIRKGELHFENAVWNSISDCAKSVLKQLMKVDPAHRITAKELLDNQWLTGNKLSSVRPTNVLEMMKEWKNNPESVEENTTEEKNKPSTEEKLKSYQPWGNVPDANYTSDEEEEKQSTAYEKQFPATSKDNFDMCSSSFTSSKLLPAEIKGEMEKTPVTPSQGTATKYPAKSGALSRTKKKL
Sequence of Angiopoietin-1 receptor (Homo sapiens) (Q02763 whole entry): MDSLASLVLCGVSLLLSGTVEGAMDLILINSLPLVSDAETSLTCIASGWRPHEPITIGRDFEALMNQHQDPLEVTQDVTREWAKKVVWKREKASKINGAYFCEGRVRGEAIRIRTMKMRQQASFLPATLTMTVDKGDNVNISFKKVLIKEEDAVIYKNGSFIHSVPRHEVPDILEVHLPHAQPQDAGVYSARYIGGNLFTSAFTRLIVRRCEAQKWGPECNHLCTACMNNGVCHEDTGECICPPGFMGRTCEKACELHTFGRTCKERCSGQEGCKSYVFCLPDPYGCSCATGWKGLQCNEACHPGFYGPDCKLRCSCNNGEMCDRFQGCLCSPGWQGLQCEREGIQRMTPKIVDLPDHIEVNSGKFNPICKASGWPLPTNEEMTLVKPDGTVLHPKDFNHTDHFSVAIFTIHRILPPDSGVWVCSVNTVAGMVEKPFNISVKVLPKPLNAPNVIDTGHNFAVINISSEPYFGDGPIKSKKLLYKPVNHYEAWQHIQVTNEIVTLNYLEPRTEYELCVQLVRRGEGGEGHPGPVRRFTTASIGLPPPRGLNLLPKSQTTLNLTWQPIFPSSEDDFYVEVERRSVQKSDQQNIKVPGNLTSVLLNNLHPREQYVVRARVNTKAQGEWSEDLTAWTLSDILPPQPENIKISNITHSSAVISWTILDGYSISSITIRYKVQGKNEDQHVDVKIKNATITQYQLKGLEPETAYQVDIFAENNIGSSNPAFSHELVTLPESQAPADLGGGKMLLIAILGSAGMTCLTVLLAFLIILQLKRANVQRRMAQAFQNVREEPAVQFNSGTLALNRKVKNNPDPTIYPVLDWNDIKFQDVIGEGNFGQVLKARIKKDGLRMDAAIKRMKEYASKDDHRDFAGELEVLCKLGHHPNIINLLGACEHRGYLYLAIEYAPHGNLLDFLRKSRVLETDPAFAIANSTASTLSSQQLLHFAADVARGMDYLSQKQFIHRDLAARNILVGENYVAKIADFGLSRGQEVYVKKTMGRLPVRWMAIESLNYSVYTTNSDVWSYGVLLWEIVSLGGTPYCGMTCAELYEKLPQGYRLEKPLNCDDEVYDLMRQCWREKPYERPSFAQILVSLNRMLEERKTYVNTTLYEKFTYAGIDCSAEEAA
Sequence of Casein kinase I isoform alpha (Homo sapiens) (P48729 2-337 limits assumed): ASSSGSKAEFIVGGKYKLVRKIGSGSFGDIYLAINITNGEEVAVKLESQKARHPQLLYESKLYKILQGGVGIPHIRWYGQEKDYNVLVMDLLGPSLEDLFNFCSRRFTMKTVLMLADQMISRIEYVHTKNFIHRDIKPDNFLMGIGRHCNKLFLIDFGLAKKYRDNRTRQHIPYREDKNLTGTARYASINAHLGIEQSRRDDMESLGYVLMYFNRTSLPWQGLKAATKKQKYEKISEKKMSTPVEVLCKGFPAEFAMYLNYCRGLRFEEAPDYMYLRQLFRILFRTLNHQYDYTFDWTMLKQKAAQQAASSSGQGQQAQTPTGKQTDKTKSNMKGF
Sequence of cAMP-dependent protein kinase catalytic subunit PRKX (Homo sapiens) (P51817 whole entry): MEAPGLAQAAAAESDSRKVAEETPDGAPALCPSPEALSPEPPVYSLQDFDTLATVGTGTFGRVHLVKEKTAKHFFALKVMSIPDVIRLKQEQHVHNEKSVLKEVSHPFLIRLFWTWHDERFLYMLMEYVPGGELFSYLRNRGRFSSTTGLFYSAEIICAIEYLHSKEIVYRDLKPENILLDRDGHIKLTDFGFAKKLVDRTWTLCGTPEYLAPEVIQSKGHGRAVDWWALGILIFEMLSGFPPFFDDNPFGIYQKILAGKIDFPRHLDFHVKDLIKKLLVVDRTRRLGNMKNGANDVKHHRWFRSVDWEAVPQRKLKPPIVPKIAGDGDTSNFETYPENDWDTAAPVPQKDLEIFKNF

Compound	Activity [1]	Activity [2]	Activity [3]	Activity [4]	Activity [5]	inhibition [6]	Activity [7]	Activity [8]	Activity [9]	Activity [10]	Activity [11]	Activity [12]	Activity [13]	Activity [14]	Activity [15]	inhibition [16]	Activity [17]	Activity [18]	Activity [19]	Activity [20]	also measured
C(=C\c1ccccc1)/C[N+]12CN3CN(CN(C3)C1)C2	94.2 to 96.3%	94.4 to 94.8%	93.3 to 94.9%	88.5 to 88.9%	91.4 to 93.7%	Dose-dependent effect	96.6 to 96.7%	94 to 95.2%	78.7 to 88%	94.9 to 95.4%	89.2 to 89.7%	92.3 to 93%	95.8 to 96.8%	93.8 to 96.3%	91.7 to 94.8%	Dose-dependent effect	93 to 95.7%	124 to 125%	91.9 to 93.1%	94.1 to 96.4%	Activity [21]: 92.8 to 93.1%; Activity [22]: 94.9 to 96.5%; Activity [23]: 87 to 94.5%; Activity [24]: 96 to 96.4%
ClC/C=C/C[N+]12CN3CN(CN(C3)C1)C2	90.6 to 91.5%	94 to 95.2%	95.2 to 96%	88.2 to 88.7%	95.9 to 96%	Dose-dependent effect	94.7 to 94.8%	93.9 to 94.3%	84.9 to 90.2%	86.5 to 88.4%	92.3 to 92.9%	90.2 to 91.3%	87.2 to 91.4%	94 to 94.8%	93.7 to 95.3%	Dose-dependent effect	91.2 to 92.6%	124 to 125%	90.5 to 92%	96 to 96.3%	Activity [21]: 94.1 to 94.7%; Activity [22]: 95.6 to 96.5%; Activity [23]: 95.7 to 97.6%; Activity [24]: 95 to 96.7%
